Where a name gives a salt, the structure may show the parent alone. Where a SMILES comes first, the peptide text is derived from it. Bridges are numbered along the chain shown (N, C = ends). [ ]: non-standard residue; d: D form. The star is where a group is joined. ξ: configuration not given here. ξβ3hGly(cHex) = NC(CC(=O)*)C1CCCCC1; Butanoyl(3ξ-OH) = CC(O)CC(=O)*; Thr(3ξ) = CC(O)[C@H](N)C(=O)O; Dab = NCC[C@H](N)C(=O)O; Ahp = NCCCCCCC(=O)O; βAla = NCCC(=O)O
Assays:
E. coli ATCC25922 = experiment: MIC susceptibility testing, broth microdilution in CaMHB; format: cell-based, Escherichia coli
Procedure, shortened: (§1)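 Duplicate broth microdilution with an inoculum of actively growing cells: overnight CaMHB culture from MHA colonies, subcultured after 100-fold dilution until OD600 reached 0.2-0.3 […], then diluted a further 100-fold.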

E. coli ATCC700928 = experiment: as above; format: cell-based, Escherichia coli
Procedure, shortened: as §1

E. coli NCTC12900 = experiment: as above; format: cell-based, Escherichia coli
Procedure, shortened: as §1

E. coli NCTC9001 = experiment: as above; format: cell-based, Escherichia coli
Procedure, shortened: as §1

P. aeruginosa ATCC 9721 = experiment: as above; format: cell-based, Pseudomonas aeruginosa
Procedure, shortened: as §1

P. aeruginosa ATCC10145 = experiment: as above; format: cell-based, Pseudomonas aeruginosa
Procedure, shortened: as §1

P. aeruginosa ATCC27853 = experiment: as above; format: cell-based, Pseudomonas aeruginosa
Procedure, shortened: as §1

[1] = test system: P. aeruginosa ATCCCRM-9027; experiment: as above; format: cell-based, Pseudomonas aeruginosa
Procedure, shortened: as §1

K. pneumoniae ATCC 4352 = experiment: as above; format: cell-based, Klebsiella pneumoniae
Procedure, shortened: as §1

[2] = test system: K. pneumoniae ATCCBAA-1706; experiment: as above; format: cell-based, Klebsiella pneumoniae; settings: Table 4
Procedure, shortened: as §1

K. pneumoniae NCTC7427 = experiment: as above; format: cell-based, Klebsiella pneumoniae
Procedure, shortened: as §1

K. pneumoniae NCTC8172 = experiment: as above; format: cell-based, Klebsiella pneumoniae
Procedure, shortened: as §1

A. baumannii ATCC19606 = experiment: as above; format: cell-based, Acinetobacter baumannii
Procedure, shortened: as §1

A. baumannii ATCCBAA-747 = experiment: as above; format: cell-based, Acinetobacter baumannii
Procedure, shortened: as §1

A. baumannii NCTC13423 = experiment: as above; format: cell-based, Acinetobacter baumannii
Procedure, shortened: as §1

A. baumannii NCTC7844 = experiment: as above; format: cell-based, Acinetobacter baumannii
Procedure, shortened: as §1

[3] = Pharmacokinetic and urinary clearance studies in rats; format: in vivo; settings: male, Sprague Dawley, rat, in vivo, iv, 1 mg/kg
Experimental: Drug solutions were prepared at 4 mg/mL in Normal Saline and the pH adjusted to 6-7 by adding the appropriate volume of 0.1 M H2SO4 or 4.2% NaHCO3. The solutions were filter-sterilized and stored at −80° C. before use. On the day of the experiment, drug solutions were diluted to 1 mg/mL with sterile Normal Saline.
Groups of 3 male Sprague Dawley rats were acclimatised for a minimum of 4 days before the study. Rats were anesthetized using isofluorane and a cannula was inserted into the jugular vein. One day after surgery, rats were dosed with an intravenous bolus injection of the solution at 1 mg/kg through the cannula, followed by washing with Normal Saline. Blood was collected manually through the cannula prior to administration of the compound and at 0.08, 0.25, 0.5, 1, 3, 6, 8 and 24 h thereafter. Plasma was harvested by centrifugation immediately after blood collection. Twenty-four hour urine samples were collected prior to and after administration of the compound in 0-4 h, 4-6 h, and 6-24 h intervals. Plasma and urine samples were frozen at −20° C.
Determination of the plasma and urine concentrations of the drug was performed by Liquid Chromatography Mass Spectrometry (LC-MS/MS). Before analysis the plasma and urine samples were prepared as follows. Plasma samples were thawed on the day of analysis and mixed with 3 volumes of acetonitrile containing 0.1% (v/v) formic acid and 100 ng/mL of internal standard. After centrifugation, supernatants were transferred to a 96-well plate and diluted 1:1 with water ready for analysis by LC-MS/MS. Urine samples were purified by solid-phase extraction (SPE) on Oasis HLB cartridges (Waters, UK) eluting with 100% methanol. An aliquot was transferred to a 96 well plate and diluted 1:1 with water before addition of internal standard solution, ready for analysis by LC-MS/MS.
The pharmacokinetic parameters were determined by non-compartmental analysis using WinNonLin v5.3. The urinary recovery was recorded as the percentage of intact drug recovered in the urine for the first 24 h after injection.

HK-2 cell line = settings: 24 h incubation, resazurin reduction; Table 7A; footnote c: solubility issues noted at top concentration
Experimental: The renal cell toxicity of the compounds was assessed in an in vitro assay using the HK-2 cell line, an immortalized proximal tubule cell line derived from a normal human kidney. The endpoint to describe the toxicity of the compounds was the reduction of resazurin correlating with the metabolic activity of the cells.
Cells were cultured in 150 cm^2 flasks in 25 mL supplemented KSF (with 5 ng/mL EGF and 50 μg/mL BPE). Cells were maintained at 70% confluence with a maximum of 25 passages. Day 1: Media was removed and cells were washed with 10 ml DPBS. […] After 1 to 2 minutes incubation, 14 ml media was added to the flask to inactivate the trypsin. The cell suspension was transferred to a centrifuge tube and the cells pelleted at 1000 rpm for 6 minutes. The cell pellet was then resuspended in fresh media supplemented with EGF and BPE. […] 7500 cells were dispensed in each well in a volume of 160 μl and incubated at 37° C. for 24 h.
Day 2: Test compounds were prepared directly into the media. […] The microtiter plates were removed from the incubator and the media replaced with 100 μl of the dilutions of the compound solution. Every set of concentration was done in triplicate, and positive and negative controls were added to each plate. The plates were then incubated for 24 h at 37° C. with 5% CO2 in a humidified atmosphere.
Day 3: The reagent containing the resazurin (CellTiter-Blue, Promega) was diluted in PBS (1:4) and added at 20% (v/v) to each well. The plates were then incubated at 37° C. for 2 h before the fluorescent reduction product was detected.
Media only background values were subtracted before the data was analysed using GraphPad Prism. Compound concentration values were plotted as log values to enable a dose-response curve to be fitted and IC50 values determined (Table 7).
The renal cell toxicity of the additional example compounds was assessed in an in vitro assay using the HK-2 cell as described in the example above.

[4] = set-up: species or system rats; settings: rat, in vivo, 8 mg/kg
Experimental: Colistin and the example compounds were prepared in saline. Compounds were introduced via the jugular canula twice a day 7 hours apart for seven days. […] The dose regimen is set out in Table 8 below.

[5] = P. aeruginosa ATCC 9721, Table 4
[6] = P. aeruginosa ATCCCRM-9027, Table 4
[7] = K. pneumoniae ATCC 4352, Table 4
[8] = Table 4A, different batches of cation-adjusted Muller-Hinton broth
[9] = K. pneumoniae ATCC4352, Table 4A, different batches of cation-adjusted Muller-Hinton broth

SMILES | MIC (E. coli ATCC25922; Table 4) [micrograms/mL] | MIC (E. coli ATCC700928; Table 4) [micrograms/mL] | MIC (E. coli NCTC12900; Table 4) [micrograms/mL] | MIC (P. aeruginosa ATCC 9721; [5]) [micrograms/mL] | MIC (P. aeruginosa ATCC10145; Table 4) [micrograms/mL] | MIC (P. aeruginosa ATCC27853; Table 4) [micrograms/mL] | MIC [1, 6] [micrograms/mL] | MIC (K. pneumoniae ATCC 4352; [7]) [micrograms/mL] | MIC [2] [micrograms/mL] | MIC (K. pneumoniae NCTC7427; Table 4) [micrograms/mL] | MIC (K. pneumoniae NCTC8172; Table 4) [micrograms/mL] | MIC (A. baumannii ATCC19606; Table 4) [micrograms/mL] | MIC (A. baumannii ATCCBAA-747; Table 4) [micrograms/mL] | MIC (A. baumannii NCTC13423; Table 4) [micrograms/mL] | MIC (A. baumannii NCTC7844; Table 4) [micrograms/mL] | MIC (E. coli ATCC25922; [8]) [micrograms/mL] | MIC (P. aeruginosa ATCC27853; [8]) [micrograms/mL] | MIC (K. pneumoniae ATCC 4352; [9]) [micrograms/mL] | MIC (A. baumannii ATCC19606; [8]) [micrograms/mL] | IC50 HK-2 cells (HK-2 cell line) | further results
CC(C)C[C@@H]1NC(=O)[C@@H](Cc2ccccc2)NC(=O)[C@H](CCN)NC(=O)[C@@H](NC(=O)[C@H](CCN)NC(=O)[C@@H](NC(=O)CCN)C(C)O)CCNC(=O)[C@H](C(C)O)NC(=O)[C@H](CCN)NC(=O)[C@H](CCN)NC1=O (stereo partly drawn) [Example 4, 3-Aminopropanoyl Polymyxin B Nonapeptide, Sulphate Salt] (H-[βAla][Thr(3ξ)][Dab][Dab][Dab][dF]L[Dab][Dab][Thr(3ξ)]; lactam 4-C) | 2 | 0.06 | 1 | 0.25 | 0.5 | 0.125 | 0.25 | 0.125 | 0.25 | 0.06 | 2 | 1 | 1 | 1 | 4 | – | – | – | – | – | MIC (E. coli NCTC9001; Table 4): 0.25 micrograms/mL; AUC(0-inf) [3]: 2030 ng·h/mL; Cmax [3]: 2520 ng/mL; Vd [3]: 0.69 L/kg; clearance [3]: 8.2 mL/min/kg; half-life [3]: 1.33 h
CC(C)C[C@@H]1NC(=O)[C@@H](Cc2ccccc2)NC(=O)[C@H](CCN)NC(=O)[C@@H](NC(=O)[C@H](CCN)NC(=O)[C@@H](NC(=O)CC(C)O)C(C)O)CCNC(=O)[C@H](C(C)O)NC(=O)[C@H](CCN)NC(=O)[C@H](CCN)NC1=O (stereo partly drawn) [Example 22, 3-(R,S)-3-Hydroxybutanoyl polymyxin B nonapeptide] ({Butanoyl(3ξ-OH)}-[Thr(3ξ)][Dab][Dab][Dab][dF]L[Dab][Dab][Thr(3ξ)]; lactam 3-C) | – | – | – | – | – | – | – | – | – | – | – | – | – | – | – | 4 | 0.5 | 8 | >32 | 500^c μg/mL | –
CC(C)C[C@@H]1NC(=O)[C@@H](Cc2ccccc2)NC(=O)[C@H](CCN)NC(=O)[C@@H](NC(=O)[C@H](CCN)NC(=O)[C@@H](NC(=O)CC(N)C2CCCCC2)C(C)O)CCNC(=O)[C@H](C(C)O)NC(=O)[C@H](CCN)NC(=O)[C@H](CCN)NC1=O (stereo partly drawn) [Example 14, [3(R,S)-3-Amino-3-cyclohexanepropanoyl] Polymyxin B Nonapeptide, Sulphate Salt] ({ξβ3hGly(cHex)}-[Thr(3ξ)][Dab][Dab][Dab][dF]L[Dab][Dab][Thr(3ξ)]; lactam 3-C) | 0.5 | 0.25 | 0.5 | 0.25 | 0.25 | 0.5 | 0.25 | 1 | 0.25 | 0.25 | 1 | 0.5 | 0.5 | 0.06 | 0.5 | 2 | 0.25 | 0.5 | – | – | MIC (E. coli ATCC700928; [8]): 2 micrograms/mL; MIC (E. coli NCTC12900; [8]): 4 micrograms/mL; MIC (E. coli NCTC9001; [8]): 4 micrograms/mL; MIC (P. aeruginosa ATCC 9721; P. aeruginosa ATCC9721, Table 4A, different batches of cation-adjusted Muller-Hinton broth): 0.25 micrograms/mL; MIC (P. aeruginosa ATCC10145; [8]): 0.5 micrograms/mL; MIC ([1]; P. aeruginosa AATCCRM 9027, Table 4A, different batches of cation-adjusted Muller-Hinton broth): 0.125 micrograms/mL; MIC (K. pneumoniae NCTC7427; [8]): 0.5 micrograms/mL; MIC (K. pneumoniae NCTC8172; [8]): >32 micrograms/mL; MIC (A. baumannii ATCCBAA-747; [8]): 0.5 micrograms/mL; MIC (A. baumannii NCTC13423; [8]): 0.125 micrograms/mL; MIC (A. baumannii NCTC7844; [8]): 0.5 micrograms/mL; levels of the renal biomarker NAG in urine compared to Colistin at the same dose regimen [4]: significantly reduced levels; levels of the renal biomarker albumin in urine compared to Colistin at the same dose regimen [4]: significantly reduced levels; levels of the renal biomarker cystatin C in urine compared to Colistin at the same dose regimen [4]: significantly reduced levels
CC(C)C[C@@H]1NC(=O)[C@@H](Cc2ccccc2)NC(=O)[C@H](CCN)NC(=O)[C@@H](NC(=O)[C@H](CCN)NC(=O)[C@@H](NC(=O)CCCCCCN)C(C)O)CCNC(=O)[C@H](C(C)O)NC(=O)[C@H](CCN)NC(=O)[C@H](CCN)NC1=O (stereo partly drawn) [Example 19, 7-Aminoheptanoyl polymyxin B nonapeptide] (H-[Ahp][Thr(3ξ)][Dab][Dab][Dab][dF]L[Dab][Dab][Thr(3ξ)]; lactam 4-C) | – | – | – | – | – | – | – | – | – | – | – | – | – | – | – | 1 | 0.25 | 2 | 16 | 157^c μg/mL | –

Source: patent publication US9234006B2, “Compounds” (Novacta Biosystems Limited, priority 2011, dated 2016)
